Measurements published in ChEMBL document CHEMBL1201862, “PubChem BioAssay data set” (2004).
Active and inactive are the calls of the source.

What was measured:
[1] = P. falciparum late gametocyte killing, dose response, luminescence (AID 1117278); format: functional, cell-based;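 further: gametocytes exposed to compound for 24 hours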
[2] = Jurkat T cell cytotoxicity, dose response, cytotoxicity control for P. falciparum gametocyte viability project, luminescence (AID 1117277); format: functional, cell-based;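 further: potency reflects loss of cellular ATP meaning fewer viable cells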
Prothrombin = Prothrombin (Homo sapiens, UniProt P00734); experiment: Thrombin 1536 HTS Dose Response Confirmation. [Related pubchem assays: 1046 (Thrombin 1536 HTS; hits were confirmed in this assay)]; format: functional
[3] = M. tuberculosis H37Rv growth inhibitors, H37Rv strain (AID 1626); format: functional
[4] = target: Photoreceptor-specific nuclear receptor (Homo sapiens, UniProt Q9Y5X4); format: functional;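 further: potency for compounds that break the NR2E3 corepressor complex and count as activators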
Chain of Photoreceptor-specific nuclear receptor (Q9Y5X4 whole entry): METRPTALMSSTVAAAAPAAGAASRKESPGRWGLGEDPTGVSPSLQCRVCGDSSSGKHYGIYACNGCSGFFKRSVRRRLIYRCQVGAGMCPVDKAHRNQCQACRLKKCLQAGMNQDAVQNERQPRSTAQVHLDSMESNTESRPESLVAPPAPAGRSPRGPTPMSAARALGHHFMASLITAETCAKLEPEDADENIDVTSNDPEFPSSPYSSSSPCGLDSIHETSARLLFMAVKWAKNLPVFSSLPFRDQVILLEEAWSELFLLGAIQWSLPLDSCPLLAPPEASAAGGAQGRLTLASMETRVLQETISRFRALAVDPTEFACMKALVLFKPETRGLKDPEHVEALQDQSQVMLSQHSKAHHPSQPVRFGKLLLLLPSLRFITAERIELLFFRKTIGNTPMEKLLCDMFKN

[5] = target: Peroxisome proliferator-activated receptor gamma/Nuclear receptor corepressor 2 (Homo sapiens, UniProt P37231+Q9Y618); format: functional
Chain of Peroxisome proliferator-activated receptor gamma/Nuclear receptor corepressor 2 (P37231 whole entry): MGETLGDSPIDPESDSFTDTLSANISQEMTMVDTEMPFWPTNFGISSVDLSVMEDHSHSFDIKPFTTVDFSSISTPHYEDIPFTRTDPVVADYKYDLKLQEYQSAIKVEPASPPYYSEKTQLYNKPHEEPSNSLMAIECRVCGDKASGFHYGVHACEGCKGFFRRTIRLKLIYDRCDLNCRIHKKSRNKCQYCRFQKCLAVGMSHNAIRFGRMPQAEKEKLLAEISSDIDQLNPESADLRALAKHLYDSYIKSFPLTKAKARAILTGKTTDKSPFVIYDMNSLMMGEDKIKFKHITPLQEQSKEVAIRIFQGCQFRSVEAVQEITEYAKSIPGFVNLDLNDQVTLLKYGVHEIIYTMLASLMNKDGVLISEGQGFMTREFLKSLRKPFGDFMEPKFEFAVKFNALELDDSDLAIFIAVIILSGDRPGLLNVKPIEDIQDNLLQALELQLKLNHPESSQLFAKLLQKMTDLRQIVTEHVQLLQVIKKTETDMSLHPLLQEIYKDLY
Chain of Peroxisome proliferator-activated receptor gamma/Nuclear receptor corepressor 2 (Q9Y618 whole entry): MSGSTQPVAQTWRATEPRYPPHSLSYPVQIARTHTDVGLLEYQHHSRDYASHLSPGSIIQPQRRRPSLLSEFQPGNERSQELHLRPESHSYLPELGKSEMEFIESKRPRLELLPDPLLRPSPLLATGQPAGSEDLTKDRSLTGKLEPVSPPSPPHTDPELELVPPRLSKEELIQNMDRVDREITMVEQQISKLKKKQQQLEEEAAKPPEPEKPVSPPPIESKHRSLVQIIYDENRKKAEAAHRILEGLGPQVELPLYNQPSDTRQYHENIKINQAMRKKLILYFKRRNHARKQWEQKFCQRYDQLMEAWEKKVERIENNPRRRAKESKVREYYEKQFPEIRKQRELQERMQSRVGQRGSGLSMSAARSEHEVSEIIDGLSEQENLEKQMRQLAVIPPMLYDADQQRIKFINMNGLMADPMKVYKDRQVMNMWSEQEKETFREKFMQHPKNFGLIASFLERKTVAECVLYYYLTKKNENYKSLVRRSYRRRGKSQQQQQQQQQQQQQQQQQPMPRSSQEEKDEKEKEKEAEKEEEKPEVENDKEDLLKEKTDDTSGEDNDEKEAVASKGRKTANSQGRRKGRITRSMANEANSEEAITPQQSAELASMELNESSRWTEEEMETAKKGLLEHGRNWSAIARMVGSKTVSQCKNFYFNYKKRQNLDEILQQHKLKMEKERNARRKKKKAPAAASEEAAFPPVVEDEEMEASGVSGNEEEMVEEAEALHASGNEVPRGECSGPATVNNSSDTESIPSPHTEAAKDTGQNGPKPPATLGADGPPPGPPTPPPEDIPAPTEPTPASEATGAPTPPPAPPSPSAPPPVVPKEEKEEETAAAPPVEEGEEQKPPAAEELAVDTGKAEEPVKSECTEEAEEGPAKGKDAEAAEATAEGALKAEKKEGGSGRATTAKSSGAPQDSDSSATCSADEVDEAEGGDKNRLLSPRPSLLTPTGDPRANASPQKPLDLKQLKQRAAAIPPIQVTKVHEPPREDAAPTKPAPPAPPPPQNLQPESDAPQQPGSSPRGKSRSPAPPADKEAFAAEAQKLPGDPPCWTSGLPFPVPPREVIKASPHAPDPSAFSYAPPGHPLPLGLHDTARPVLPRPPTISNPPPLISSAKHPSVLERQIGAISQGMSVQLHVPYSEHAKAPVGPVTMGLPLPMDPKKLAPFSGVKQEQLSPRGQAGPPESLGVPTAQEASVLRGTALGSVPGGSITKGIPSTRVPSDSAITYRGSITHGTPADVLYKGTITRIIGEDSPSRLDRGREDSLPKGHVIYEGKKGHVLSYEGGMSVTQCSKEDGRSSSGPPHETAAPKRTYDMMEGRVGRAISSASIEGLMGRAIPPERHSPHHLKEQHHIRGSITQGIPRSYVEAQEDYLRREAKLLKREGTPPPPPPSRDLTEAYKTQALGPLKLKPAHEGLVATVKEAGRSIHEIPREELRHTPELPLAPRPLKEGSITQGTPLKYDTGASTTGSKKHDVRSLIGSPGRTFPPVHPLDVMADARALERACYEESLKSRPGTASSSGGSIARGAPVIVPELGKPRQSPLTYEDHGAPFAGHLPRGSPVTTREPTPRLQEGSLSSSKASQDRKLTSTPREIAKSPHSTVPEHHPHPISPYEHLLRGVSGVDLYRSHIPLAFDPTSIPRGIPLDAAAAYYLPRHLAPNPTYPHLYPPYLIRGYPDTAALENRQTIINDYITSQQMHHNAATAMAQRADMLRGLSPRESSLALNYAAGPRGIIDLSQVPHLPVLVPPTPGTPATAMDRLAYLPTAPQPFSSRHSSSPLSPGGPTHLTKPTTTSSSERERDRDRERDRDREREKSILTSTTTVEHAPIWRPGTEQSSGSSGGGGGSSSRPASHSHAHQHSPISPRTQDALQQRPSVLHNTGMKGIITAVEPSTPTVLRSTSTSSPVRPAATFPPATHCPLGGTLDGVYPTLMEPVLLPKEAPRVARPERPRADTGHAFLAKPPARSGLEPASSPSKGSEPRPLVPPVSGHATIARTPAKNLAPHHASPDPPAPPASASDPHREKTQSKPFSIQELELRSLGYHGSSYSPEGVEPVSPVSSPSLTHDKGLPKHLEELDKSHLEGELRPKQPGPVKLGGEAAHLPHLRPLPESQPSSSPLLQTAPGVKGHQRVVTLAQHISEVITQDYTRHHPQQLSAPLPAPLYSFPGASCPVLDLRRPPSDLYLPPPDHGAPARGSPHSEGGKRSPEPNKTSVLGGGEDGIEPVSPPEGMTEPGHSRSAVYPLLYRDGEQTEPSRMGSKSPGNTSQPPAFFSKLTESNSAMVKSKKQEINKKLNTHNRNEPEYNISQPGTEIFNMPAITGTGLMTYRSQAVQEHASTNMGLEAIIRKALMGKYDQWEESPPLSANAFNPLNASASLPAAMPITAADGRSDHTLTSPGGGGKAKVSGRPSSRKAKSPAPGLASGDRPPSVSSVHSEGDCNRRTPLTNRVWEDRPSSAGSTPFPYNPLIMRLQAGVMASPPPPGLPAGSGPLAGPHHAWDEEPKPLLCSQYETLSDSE

14-3-3 protein gamma = target: T1, 14-3-3 protein gamma (Homo sapiens, UniProt P61981); experiment: modulators of 14-3-3 gamma client binding – dose response (AID 711); format: functional
T1 sequence (P61981 whole entry): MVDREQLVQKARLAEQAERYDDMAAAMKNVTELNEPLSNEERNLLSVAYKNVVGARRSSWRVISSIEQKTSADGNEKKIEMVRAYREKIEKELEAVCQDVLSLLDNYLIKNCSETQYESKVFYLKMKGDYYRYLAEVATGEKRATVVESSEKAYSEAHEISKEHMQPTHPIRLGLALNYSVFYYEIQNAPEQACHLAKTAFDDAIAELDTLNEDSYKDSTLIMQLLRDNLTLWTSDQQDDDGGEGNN

Bcl-2-like protein 10 = target: T2, Bcl-2-like protein 10 (Homo sapiens, UniProt Q9HD36); experiment: displacers of TR3 peptide from Bcl-B, primary screen, selectivity assay for Bfl-1 inhibitor project, biochemical, fluorescence polarization, FITC-TR3 peptide (AID 748);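 further: fluorescence polarization from a fluorescein-labelled TR3 peptide binding purified Bcl-B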
T2 sequence (Q9HD36 whole entry): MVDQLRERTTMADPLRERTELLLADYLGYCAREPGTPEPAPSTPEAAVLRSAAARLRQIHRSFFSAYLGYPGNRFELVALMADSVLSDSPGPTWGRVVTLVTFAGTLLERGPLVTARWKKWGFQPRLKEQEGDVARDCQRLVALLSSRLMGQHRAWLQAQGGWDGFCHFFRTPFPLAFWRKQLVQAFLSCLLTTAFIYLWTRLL

[6] = target: Induced myeloid leukemia cell differentiation protein Mcl-1 (Homo sapiens, UniProt Q07820); format: functional
Chain of Induced myeloid leukemia cell differentiation protein Mcl-1 (Q07820 whole entry): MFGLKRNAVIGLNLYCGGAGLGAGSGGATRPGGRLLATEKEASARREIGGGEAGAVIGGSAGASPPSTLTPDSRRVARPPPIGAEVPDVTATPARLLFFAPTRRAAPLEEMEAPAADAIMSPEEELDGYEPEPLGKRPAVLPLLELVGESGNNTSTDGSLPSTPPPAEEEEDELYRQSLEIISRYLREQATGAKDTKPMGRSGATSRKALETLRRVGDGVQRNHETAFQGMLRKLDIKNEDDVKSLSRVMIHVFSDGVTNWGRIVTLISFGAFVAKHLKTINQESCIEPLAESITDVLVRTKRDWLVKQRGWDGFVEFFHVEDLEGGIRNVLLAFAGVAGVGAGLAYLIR

[7] = A cytotoxicity screen of small molecule inhibitors of the PhoP region in Salmonella typhi identified in the primary screen. [Related pubchem assays: 1850, 1864, 1985 ]; format: functional
[8] = Vero cell cytotoxicity, dose response, cytotoxicity control for Vif-APOBEC3G degradation inhibitor project, Vero cells (AID 1117358); format: functional; settings: Human immunodeficiency virus 1, Vero
Cytochrome P450 1A2 = target: T3, Cytochrome P450 1A2 (Homo sapiens, UniProt P05177);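 further: PubChem cytochrome P450 panel assay, CYP1A2 panel member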
T3 sequence (P05177 whole entry): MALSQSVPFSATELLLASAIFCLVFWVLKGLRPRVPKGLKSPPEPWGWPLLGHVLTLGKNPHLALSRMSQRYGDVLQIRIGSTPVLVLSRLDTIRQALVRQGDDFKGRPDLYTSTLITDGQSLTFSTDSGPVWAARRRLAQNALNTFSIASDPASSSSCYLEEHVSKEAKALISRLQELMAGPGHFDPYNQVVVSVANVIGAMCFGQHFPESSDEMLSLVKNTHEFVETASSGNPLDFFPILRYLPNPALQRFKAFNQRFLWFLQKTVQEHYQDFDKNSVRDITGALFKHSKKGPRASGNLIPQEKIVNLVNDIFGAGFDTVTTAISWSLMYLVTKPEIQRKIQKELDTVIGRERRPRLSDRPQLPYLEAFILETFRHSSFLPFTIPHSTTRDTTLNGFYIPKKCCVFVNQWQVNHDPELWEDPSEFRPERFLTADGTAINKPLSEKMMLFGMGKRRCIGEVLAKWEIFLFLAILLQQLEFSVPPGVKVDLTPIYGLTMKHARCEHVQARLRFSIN

[9] = target: Peroxisome proliferator-activated receptor gamma/Nuclear receptor coactivator 3 (Homo sapiens, UniProt P37231); experiment: TR-FRET dose response biochemical High Throughput Screening assay for agonists of the steroid receptor coactivator 3 (SRC-3) recruitment by the peroxisome proliferator-activated receptor gamma (PPAR gamma): non-selective agonists. [Related pubchem assays: 1301 (Confirmation screen.), 1048 (Primary screen.)]; format: functional
[10] = target: Peroxisome proliferator-activated receptor gamma/Nuclear receptor coactivator 2 (Homo sapiens, UniProt P37231); experiment: TR-FRET dose response biochemical High Throughput Screening assay for agonists of the steroid receptor coactivator 2 (SRC-2) recruitment by the peroxisome proliferator-activated receptor gamma (PPAR gamma): non-selective agonists. [Related pubchem assays: 1297, 1032 ]; format: functional
[11] = target: Peroxisome proliferator-activated receptor gamma/Nuclear receptor coactivator 1 (Homo sapiens, UniProt P37231); experiment: TR-FRET dose response biochemical High Throughput Screening assay for agonists of the steroid receptor coactivator 1 (SRC-1) recruitment by the peroxisome proliferator-activated receptor gamma (PPAR gamma): non-selective agonists. [Related pubchem assays (depositor defined):AID1300, AID1808, AID504735, AID631]; format: protein assay
[12] = Luminescence Cell-Based Dose Confirmation HTS to Identify Activators of 5'UTR Stem-Loop Driven Alpha-Synuclein mRNA Translation in H4 Neuroglioblastoma Cells. [Related pubchem assays: 1829 (Project Summary), 1814 (Primary HTS)]; format: functional
[13] = Luminescence Cell-Based Dose Response HTS to Identify Activators of Luciferase Translation or Activity in H4 […] Cells. [Related pubchem assays: 1829 (Project Summary), 1814 (Primary HTS)]; format: functional
H4 = experiment: Luminescence Cell-Based Dose Response HTS to Identify Activators of 5'UTR Stem-Loop Driven Prion Protein mRNA Translation in H4 Neuroglioblastoma Cells. [Related pubchem assays: 1829 (Project Summary), 1814 (Primary HTS)]; format: functional; settings: Homo sapiens
[14] = target: Eukaryotic translation initiation factor 4H (Homo sapiens, UniProt Q15056); experiment: human eIF4H binding inhibitors, primary screen, translation initiation inhibitor project, biochemical, uHTS, fluorescence polarization (AID 2012)
[15] = target: Polyadenylate-binding protein 1 (Homo sapiens, UniProt P11940); experiment: PABP poly(A) RNA binding inhibitors, primary screen, biochemical, fluorescence polarization, uHTS (AID 2014)
Chain of Polyadenylate-binding protein 1 (P11940 whole entry): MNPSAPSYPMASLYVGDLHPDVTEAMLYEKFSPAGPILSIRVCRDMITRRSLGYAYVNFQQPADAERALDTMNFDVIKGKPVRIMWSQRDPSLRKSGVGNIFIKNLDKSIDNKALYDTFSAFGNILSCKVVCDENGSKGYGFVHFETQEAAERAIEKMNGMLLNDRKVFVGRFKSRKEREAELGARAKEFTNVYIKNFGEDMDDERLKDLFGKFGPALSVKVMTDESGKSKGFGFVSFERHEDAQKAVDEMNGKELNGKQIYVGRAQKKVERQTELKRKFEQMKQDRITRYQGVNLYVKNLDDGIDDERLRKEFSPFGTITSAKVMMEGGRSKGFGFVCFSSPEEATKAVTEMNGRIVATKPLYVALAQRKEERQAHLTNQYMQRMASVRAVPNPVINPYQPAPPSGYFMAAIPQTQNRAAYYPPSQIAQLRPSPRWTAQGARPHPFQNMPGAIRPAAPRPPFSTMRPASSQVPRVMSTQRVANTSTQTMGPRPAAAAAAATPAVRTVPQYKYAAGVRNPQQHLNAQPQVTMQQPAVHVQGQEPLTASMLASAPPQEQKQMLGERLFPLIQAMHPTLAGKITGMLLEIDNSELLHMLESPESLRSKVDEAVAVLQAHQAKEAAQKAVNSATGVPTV

Estrogen receptor = target: T4, Estrogen receptor (Homo sapiens, UniProt P03372);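 further: potency for inhibiting coactivator peptide recruitment to the receptor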
T4 sequence (P03372 whole entry): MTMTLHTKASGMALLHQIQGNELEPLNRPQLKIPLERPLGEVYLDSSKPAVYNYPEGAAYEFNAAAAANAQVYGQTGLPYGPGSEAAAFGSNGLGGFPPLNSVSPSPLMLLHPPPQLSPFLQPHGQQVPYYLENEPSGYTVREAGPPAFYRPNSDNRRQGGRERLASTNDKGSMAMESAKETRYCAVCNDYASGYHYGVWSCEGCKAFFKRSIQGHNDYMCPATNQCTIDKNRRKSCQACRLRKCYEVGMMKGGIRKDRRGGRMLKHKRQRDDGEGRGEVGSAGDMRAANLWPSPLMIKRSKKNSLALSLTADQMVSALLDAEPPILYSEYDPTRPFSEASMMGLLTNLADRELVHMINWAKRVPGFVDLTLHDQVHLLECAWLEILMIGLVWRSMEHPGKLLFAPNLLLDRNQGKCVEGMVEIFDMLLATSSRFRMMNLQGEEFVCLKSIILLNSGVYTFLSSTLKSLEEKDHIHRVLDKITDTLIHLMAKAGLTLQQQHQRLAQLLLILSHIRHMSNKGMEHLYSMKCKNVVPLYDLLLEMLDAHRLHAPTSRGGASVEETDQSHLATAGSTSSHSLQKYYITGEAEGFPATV

[16] = target: Heat shock protein HSP 90-alpha (Homo sapiens, UniProt P07900); format: functional, organism-based
Beta-galactosidase = Beta-galactosidase (Escherichia coli, UniProt Q8VNN2); experiment: beta-galactosidase enzyme inhibitors and activators, dose response, artefact control for CCR6 antagonist project, biochemical, E. coli enzyme, set 3 (AID 504712); format: functional
Phosphomannomutase 2 = target: T5, Phosphomannomutase 2 (Homo sapiens, UniProt O15305); experiment: Counter screen SAR assay for PMM2 inhibitors via a fluorescence intensity assay. [Related pubchem assays (depositor defined):AID1545, AID1574]
T5 sequence (O15305 whole entry): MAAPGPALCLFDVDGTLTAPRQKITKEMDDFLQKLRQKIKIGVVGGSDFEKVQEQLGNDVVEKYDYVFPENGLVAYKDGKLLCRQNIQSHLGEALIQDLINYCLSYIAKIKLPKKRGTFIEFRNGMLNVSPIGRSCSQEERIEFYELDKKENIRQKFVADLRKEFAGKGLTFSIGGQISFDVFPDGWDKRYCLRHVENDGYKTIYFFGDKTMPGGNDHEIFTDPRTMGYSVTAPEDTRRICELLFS

[17] = target: T6, Mannose-6-phosphate isomerase (Homo sapiens, UniProt P34949); experiment: inhibitors of human PMI, primary screen, biochemical, fluorescence intensity, coupled assay (AID 1209)
T6 sequence (P34949 whole entry): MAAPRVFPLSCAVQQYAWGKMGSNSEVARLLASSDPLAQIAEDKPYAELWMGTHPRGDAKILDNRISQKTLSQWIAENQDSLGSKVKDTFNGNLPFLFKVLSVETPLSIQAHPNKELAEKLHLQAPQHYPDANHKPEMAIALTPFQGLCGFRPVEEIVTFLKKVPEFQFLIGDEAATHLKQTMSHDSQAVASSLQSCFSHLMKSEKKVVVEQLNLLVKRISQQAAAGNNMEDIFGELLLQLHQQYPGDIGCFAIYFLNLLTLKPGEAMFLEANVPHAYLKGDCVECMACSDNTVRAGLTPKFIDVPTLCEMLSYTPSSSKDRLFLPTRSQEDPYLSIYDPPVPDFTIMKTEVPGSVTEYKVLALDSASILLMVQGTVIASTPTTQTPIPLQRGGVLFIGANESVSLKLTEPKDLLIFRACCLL

NS(=O)(=O)c1ccc(N2CCCC2=O)c([N+](=O)[O-])c1
IC50 [1]: > 109 µM (inactive) | IC50 [2]: > 83.2 µM (inactive)

CC(=O)n1nc(-c2ccc(C)cc2)nc1NCc1ccco1
IC50 (Prothrombin): 1.82 µM (active)

COc1ccc(NC(=O)CCc2nc(-c3ccccc3F)no2)cc1
IC50 [3]: > 100 µM (active)

COc1ccc(C(=O)NNC(=O)C(Cc2ccc(O)cc2)NC(=O)c2ccccc2NC(=O)c2ccc(OC)cc2)cc1 (configuration not stated)
IC50 [4]: > 39.8 µM (not active) | IC50 [5]: > 39.8 µM (not active)

COC(=O)Cn1cc(C(=O)c2cccs2)c2ccccc21
IC50 (Prothrombin): > 50 µM (inconclusive)

Cc1ccc(C(=O)NCC(C)(C)O)cc1
IC50 (14-3-3 protein gamma): > 50 µM (not active)

Cc1cc(C)c(NC(=O)CN(c2ccccc2)S(=O)(=O)N(C)C)c(C)c1
IC50 (Bcl-2-like protein 10): 69.2 µM (inactive)

Cc1cc(NS(=O)(=O)c2ccc(Nc3nc(-c4sc(NC(=O)c5ccccc5)nc4C)cs3)cc2)no1
IC50 [6]: 2.46 µM (active) | EC50 [7]: > 50 µM (active)

Cc1ccc(NS(=O)(=O)c2ccc(OCC(=O)Nc3cccc([N+](=O)[O-])c3)c(C)c2)cc1
CC50 [8]: > 40 µM (active) | AC50 (Cytochrome P450 1A2): 22.4 µM (inconclusive)

CCOc1cc(C2NC(=O)NC(O)(C(F)(F)F)C2C(=O)c2ccc(Cl)cc2)ccc1O (configuration not stated)
IC50 (Prothrombin): > 50 µM (not active)

COc1cc(C(=O)N2CCC(n3cnc4cc(F)ccc43)CC2)cc(OC)c1OC
IC50 [1]: > 109 µM (inactive) | IC50 [2]: > 83.3 µM (inactive)

CN(C)CCCN1C(=O)C(O)=C(C(=O)c2cc3ccccc3o2)C1c1ccccc1 (configuration not stated)
EC50 [9]: > 79.4 µM (not active) | EC50 [10]: 4.26 µM (active) | IC50 [4]: > 39.8 µM (not active) | EC50 [11]: 6.07 µM (active) | IC50 [5]: 5.04 µM (active)

Nc1ccccc1Nc1cc(-c2ccccc2)[nH]n1
EC50 [12]: 14.1 µM (active) | EC50 [13]: 19.8 µM (active) | IC50 [3]: > 100 µM (active) | EC50 (H4): 12.1 µM (active)

O=C(NCc1ccco1)C1c2ccccc2Oc2ccccc21
IC50 [14]: 15.7 µM (active) | IC50 [15]: 71.3 µM (active)

Cc1cccc2cc(C(c3nnnn3C(C)(C)C)N(Cc3ccco3)CC3CCCO3)c(=O)[nH]c12 (configuration not stated)
IC50 (Estrogen receptor): 13.3 µM (active) | IC50 (Bcl-2-like protein 10): > 100 µM (inactive)

Cc1ccc(-n2c(=S)[nH]c3c(oc4ccccc43)c2=O)cc1C
IC50 [4]: 4.11 µM (active) | IC50 [5]: 7.61 µM (active)

CCOc1ccc(-n2cc(C(=O)N3CCN(C)CC3)c3cc(OC)c(OC)cc3c2=O)cc1
IC50 (14-3-3 protein gamma): > 50 µM (not active)

COc1ccc(NC(=O)CSC2=NCCN2)cc1
IC50 [3]: > 100 µM (active)

COc1cccc2cc(-c3cc(=O)oc4ccc(O)cc34)oc12
IC50 [14]: 43.1 µM (active) | IC50 [15]: > 100 µM (inactive)

COc1ccccc1CN(C)C(C)C(=O)Nc1cccc(C(C)=O)c1 (configuration not stated)
IC50 [1]: > 109 µM (inactive) | IC50 [2]: > 83.3 µM (inactive)

Cc1cc(C)cc(N2C(=O)C=CC2=O)c1
AC50 [16]: 0.499 µM (active) | IC50 (Beta-galactosidase): > 66.6 µM (inactive)

Cc1ccc(C)c(-n2[nH]c3ccccc3c2=O)c1
IC50 (Phosphomannomutase 2): > 100 µM (inactive)

C(=N/Nc1nccs1)/c1cccnc1
EC50 [7]: > 50 µM (active)

Cn1c(=O)[nH]c(=O)c2c1nc(Br)n2C/C=N/Nc1ccccc1
IC50 [17]: > 50 µM (not active)
